The subject of one assay is primary cortical neurons. Nature of the assay: Fura-2 Ca2+ imaging (abnormal Ca2+ response) in cultured cortical neurons. To be noted: co-treated 30 µM LY367385, 1 µM FITM or 10 µM U73122.
A further assay has as its target T1, mGlu1(N264H) mutant (Rattus norvegicus, UniProt P23385, N264H).
T1 construct: expressed in transfected cells; host or cells: HEK293
Briefly: Fura-2 Ca2+ imaging in HEK293 cells expressing mGlu1(N264H). The assay is classed as cell-based. To be noted: for Effect of pre-treated inhibitor on 10 µM Pd(bpy)-induced Ca2+ responses: 10 µM LY367385, 1 µM FITM, 10 µM YM254890 or 1 µM U73122.

In a further assay the target is T2, mGlu1 P58H/N264H mutant (Rattus norvegicus, UniProt P23385, N264H/P58H).
T2 construct: expressed in transfected cells; host or cells: HEK293
Briefly: Fura-2 Ca2+ imaging in HEK293 cells expressing mGlu1 P58H/N264H. The assay is classed as cell-based. The conditions noted are these: for Δratio of 3 µM Pd(bpy)-induced response, ave / Δratio of 10 µM glutamate-induced response, ave: n = 20.

The target in the next assay is T3, mGlu1 E60H/N264H mutant (Rattus norvegicus, UniProt P23385, E60H/N264H).
T3 construct: expressed in transfected cells; host or cells: HEK293
Nature of the assay: Fura-2 Ca2+ imaging in HEK293 cells expressing mGlu1 E60H/N264H. Type of assay: cell-based. To be noted: 10 μM metal ion or metal complex.

The target of a further assay is T4, mGlu1 P57H/N264H mutant (Rattus norvegicus, UniProt P23385, N264H/P57H).
T4 construct: expressed in transfected cells; host or cells: HEK293
Briefly: Fura-2 Ca2+ imaging in HEK293 cells expressing mGlu1 P57H/N264H. The assay is classed as cell-based. The conditions noted are these: 10 μM metal ion or metal complex.

The target of the next assay is T5, mGlu1 A59H/N264H mutant (Rattus norvegicus, UniProt P23385, A59H/N264H).
T5 construct: expressed in transfected cells; host or cells: HEK293
Briefly: Fura-2 Ca2+ imaging in HEK293 cells expressing mGlu1 A59H/N264H. The assay is classed as cell-based. To be noted: 10 μM metal ion or metal complex.

In a further assay the target is T6, mGlu1 K61H/N264H mutant (Rattus norvegicus, UniProt P23385, K61H/N264H).
T6 construct: expressed in transfected cells; host or cells: HEK293
Briefly: Fura-2 Ca2+ imaging in HEK293 cells expressing mGlu1 K61H/N264H. Type of assay: cell-based. The conditions noted are these: 10 μM metal ion or metal complex.

Assay [1] deals with MLIs infected with AAV-hSyn-mGlu1^WT. Nature of the assay: sAP-mediated currents (firing rate) of MLIs infected with AAV-hSyn-mGlu1^WT. Type of assay: cell-based, mouse. Here is the method:
(§1) To monitor the excitability of MLIs, sAP-mediated current responses were extracellulary recorded by a loose cell-attached voltage-clamp at a holding potential of 0 mV. Glass electrodes used for cell-attached recordings had resistances of 3–5 MΩ when filled with ACSF. The current recordings from AAV-infected cells were performed 1−2 weeks after infection. The EPSCs and sAP-mediated currents were recorded using an Axopatch 200B amplifier (Molecular Devices), and the pClamp system (version 9.2; Molecular Devices) was used for data acquisition and analysis. The signals were filtered at 1 kHz and digitized at 4 kHz for the evoked EPSCs and 10 kHz for the sAP-mediated currents.
(§2) Injection of viral solutions was performed as described previously with slight modifications. Briefly, under deep anesthesia, with an intraperitoneal injection of medetomidine (0.3 mg/kg), midazolam (4.0 mg/kg), and butorphanol (5.0 mg/kg), 4 µL of the solutions containing AAV mixture were directly injected into the vermis of cerebellar lobules V-VIII (200-300 µm in depth, 12 µL/h in rate) of WT mice (C57BL/6J, P20-P30) using glass pipette (30–40 µm in diameter) and microinjector (Nanoliter; World Precision Instruments). In all, 1−2 week after injection, the mice were used for each experiment.

In assay [2] the test system is Purkinje cells in cerebellar slices from mGlu1^CBC/CBC mice. Nature of the assay: chemLTD recording (PF-EPSC) in Purkinje cells of acute cerebellar slices, mGlu1^CBC/CBC mice. Type of assay: cell-based, mouse. The conditions noted are these: DHPG 50 μM for 10 min; t = 31−35 min. The protocol: (§3) Sagittal cerebellar slices were cut with a microslicer (Linear slicer Pro7; DOSAKA EM) in cutting solution buffer and then incubated in ACSF gassed with 5% CO2 and 95% O2 at room temperature.
(§4) Whole-cell patch-clamp recordings were made from visually identified Purkinje cells using a 60× water-immersion objective attached to an upright microscope (BX51WI, Olympus) at room temperature, as described previously. […] Picrotoxin (100 µM; Sigma) was always added to the saline to block inhibitory synaptic transmission.
(§5) To evoke EPSCs derived from CF (CF-EPSCs) and PF (PF-EPSCs) inputs onto Purkinje cells, square pulses were applied through a stimulating electrode placed on the granular layer and the molecular layer (50 µm away from the pial surface), respectively. The selective stimulation of CFs and PFs was confirmed by the paired-pulse depression (PPD) and paired-pulse facilitation (PPF) of EPSC amplitudes at a 50-ms interstimulus interval (ISI), respectively.
(§6) For the LTD sessions, PF-EPSCs were recorded successively at a frequency of 0.1 Hz from Purkinje cells clamped at –80 mV. After a stable PF-EPSC amplitude had been observed for at least 5 min, a conjunctive stimulation that consisted of 30 single PF stimuli together with a 200 ms depolarizing pulse from a holding potential of –60 to +20 mV was applied for LTD induction.
(§7) To chemically induce LTD (chemLTD), 50 µM (S)-3,5-dihydroxyphenylglycine (DHPG) or 1 µM Pd(sulfo-bpy) was applied for 10 min in a current-clamp mode. We often observed a transient decrease in PF-EPSC amplitude after the application of each drug probably because Purkinje cells under current-clamp conditions excite spontaneously to suppress presynaptic function through the retrograde signaling. Access resistances were monitored every 10 s by measuring the peak currents in response to 2 mV, 50-ms hyperpolarizing steps throughout the experiments; the measurements were discarded if the resistance changed by >20% of its original value. The normalized EPSC amplitude on the ordinate represents the EPSC amplitude for the average of six traces for 1 min divided by that of the average of six traces for 1 min immediately before the conjunctive stimulation or the drug application.

Assay [3] concerns Purkinje cells in cerebellar slices from mGlu1^+/+ mice. Briefly: chemLTD recording (PF-EPSC) in Purkinje cells of acute cerebellar slices, mGlu1^+/+ mice. Type of assay: cell-based, mouse. To be noted: DHPG 50 μM for 10 min; t = 31−35 min. Here is the method: as §3, §4, §5, §6, §7
Assay [4] deals with MLIs infected with AAV-hSyn-mGlu1^CBC. Briefly: sAP-mediated currents (firing rate) of MLIs infected with AAV-hSyn-mGlu1^CBC. The assay is classed as cell-based, mouse. Here is the method: as §1, §2
The mark [5] stands for this setting: Suppl Fig14d, AAV-hSyn-mGlu1WT, mean of 12 cells.
Setting [6] is: Suppl Fig14d, AAV-hSyn-mGlu1CBC, mean of 15 cells.

Values joined by “and” are separate entries in the source; they are usually repeats but may differ in a detail not shown here. Equal entries are not always repeated. Starred links: 1 amine or outer side, 2 acyl side, 3 side chain; linkers in the order of their positions; H or OH if unused. Positions of bridges follow the written chain, without caps; N, C: chain ends. Non-standard residues stand in square brackets, D forms with d. Residues, ends and D or L forms follow the SMILES beside them. X1 = CC(=O)NC(C(=O)OC(C(C)C)C(N[*:1])C(=O)[*:2])C(O)C(C)C; PhLac = O=C(O)[CH](O)Cc1ccccc1; NMeT = CN[CH](C(=O)O)[CH](C)O; NMeA = CN[CH](C)C(=O)O; NMeDha = C=C(NC)C(=O)O

T2 sequence (P23385 19-1199 P58H/N264H): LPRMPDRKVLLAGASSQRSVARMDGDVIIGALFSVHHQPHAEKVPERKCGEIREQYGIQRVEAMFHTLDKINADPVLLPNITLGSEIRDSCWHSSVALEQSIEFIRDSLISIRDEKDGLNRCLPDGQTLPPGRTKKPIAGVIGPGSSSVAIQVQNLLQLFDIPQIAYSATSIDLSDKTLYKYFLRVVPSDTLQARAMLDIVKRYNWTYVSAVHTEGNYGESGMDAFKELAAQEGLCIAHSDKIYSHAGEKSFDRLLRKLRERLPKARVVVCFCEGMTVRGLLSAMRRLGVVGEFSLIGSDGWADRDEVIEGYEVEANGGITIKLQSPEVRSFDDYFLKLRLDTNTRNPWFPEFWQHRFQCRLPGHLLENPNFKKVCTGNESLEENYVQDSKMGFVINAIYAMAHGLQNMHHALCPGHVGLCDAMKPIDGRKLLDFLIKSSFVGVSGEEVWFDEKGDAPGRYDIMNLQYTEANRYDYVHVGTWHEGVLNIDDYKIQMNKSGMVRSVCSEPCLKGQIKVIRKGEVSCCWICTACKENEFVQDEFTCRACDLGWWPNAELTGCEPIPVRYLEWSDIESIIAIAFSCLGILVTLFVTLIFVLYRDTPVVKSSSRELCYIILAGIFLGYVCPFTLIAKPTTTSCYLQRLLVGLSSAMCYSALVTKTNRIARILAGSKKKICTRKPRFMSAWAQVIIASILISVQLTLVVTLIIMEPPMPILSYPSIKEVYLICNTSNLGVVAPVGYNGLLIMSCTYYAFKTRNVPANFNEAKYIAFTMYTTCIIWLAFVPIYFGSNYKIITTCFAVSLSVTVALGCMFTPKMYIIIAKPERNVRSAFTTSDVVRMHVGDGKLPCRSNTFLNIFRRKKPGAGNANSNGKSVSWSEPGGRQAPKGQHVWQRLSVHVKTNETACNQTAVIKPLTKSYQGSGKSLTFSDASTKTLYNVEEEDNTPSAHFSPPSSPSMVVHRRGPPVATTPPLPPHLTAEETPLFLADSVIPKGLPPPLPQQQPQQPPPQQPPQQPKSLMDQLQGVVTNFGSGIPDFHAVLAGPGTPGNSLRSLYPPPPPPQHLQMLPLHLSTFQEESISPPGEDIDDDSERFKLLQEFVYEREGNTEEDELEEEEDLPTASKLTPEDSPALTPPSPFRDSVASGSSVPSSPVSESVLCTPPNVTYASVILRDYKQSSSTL
T1 sequence (P23385 19-1199 N264H): as the sequence (P23385 19-1199 P58H/N264H) above, with H40P counted along it
T5 sequence (P23385 19-1199 A59H/N264H): as the sequence (P23385 19-1199 P58H/N264H) above, with H40P, A41H counted along it
T4 sequence (P23385 19-1199 P57H/N264H): as the sequence (P23385 19-1199 P58H/N264H) above, with P39H, H40P counted along it
T6 sequence (P23385 19-1199 K61H/N264H): as the sequence (P23385 19-1199 P58H/N264H) above, with H40P, K43H counted along it
T3 sequence (P23385 19-1199 E60H/N264H): as the sequence (P23385 19-1199 P58H/N264H) above, with H40P, E42H counted along it

For the compound `COc1ccc2c(c1)CC[C@@H]1[C@@H]2CC[C@]2(C)[C@@H](NCCCCCCN3C(=O)C=CC3=O)CC[C@@H]12` [U73122, reference compound], the “Effect of inhibitor on 30 µM Pd(bpy)-induced [Ca2+]i elevation” value with primary cortical neurons was “suppressed by neither”. In addition, the “Effect of pre-treated inhibitor on 10 µM Pd(bpy)-induced Ca2+ responses” value (“Effect of pre-treated inhibitor” below) on mGlu1(N264H) mutant is “suppressed”.

Turning to `Cc1cc(C(=O)O)ccc1[C@H](N)C(=O)O` [LY367385, reference compound], the “Effect of inhibitor on 30 µM Pd(bpy)-induced [Ca2+]i elevation” value in the assay with primary cortical neurons is on record as “suppressed by neither”. Moreover, the “Effect on Pd(bpy)-induced Ca2+ responses” value at mGlu1 P58H/N264H mutant (10 μM LY367385, 3 µM Pd(bpy)) is recorded as “inhibited”. Moreover, the “Δratio of 3 µM Pd(bpy)-induced response, ave” value on mGlu1 P58H/N264H mutant ([LY367385] 0.1 µM) came to 0.1859; on mGlu1 P58H/N264H mutant ([LY367385] 0.3 µM), 0.1915; at mGlu1 P58H/N264H mutant ([LY367385] 1 µM), 0.262; at mGlu1 P58H/N264H mutant ([LY367385] 3 µM) it was 0.1837; at mGlu1 P58H/N264H mutant ([LY367385] 10 µM), 0.007225; at mGlu1 P58H/N264H mutant ([LY367385] 30 µM) it was 0.008008. In addition, on mGlu1 P58H/N264H mutant ([LY367385] 100 µM), the “Δratio of 3 µM Pd(bpy)-induced response, ave” value is recorded as 0.01163. Further, the “Δratio of 10 µM glutamate-induced response, ave” value on mGlu1 P58H/N264H mutant ([LY367385] 0.1 µM) is given as 0.243; on mGlu1 P58H/N264H mutant ([LY367385] 0.3 µM), 0.2897; on mGlu1 P58H/N264H mutant ([LY367385] 1 µM), 0.3662; on mGlu1 P58H/N264H mutant ([LY367385] 3 µM), 0.2021; at mGlu1 P58H/N264H mutant ([LY367385] 10 µM), 0.09778; at mGlu1 P58H/N264H mutant ([LY367385] 30 µM) it was 0.0409. Moreover, the “Δratio of 10 µM glutamate-induced response, ave” value at mGlu1 P58H/N264H mutant ([LY367385] 100 µM) amounted to 0.05699. The “Effect on glutamate-induced Ca2+ responses” value on mGlu1 P58H/N264H mutant (pretreatment with LY367385, 10 µM glutamate) is given as “suppressed”. The “Effect of pre-treated inhibitor” value on mGlu1(N264H) mutant is recorded as “inhibited”.

For `C=C1C(=O)NC(C)C(=O)N(C)C(C)C(=O)NC(C(OC(=O)C(NC(C)=O)C(O)C(C)C)C(C)C)C(=O)N(C)C(C(C)OC)C(=O)OC(C)C(NC(C)=O)C(=O)OC(Cc2ccccc2)C(=O)N1C` (centres unmarked) [YM-254890, reference compound] (Ac-T[PhLac][NMeDha]A[NMeA][X1][NMeT](Me); ester 1-C; configuration not given here), the “Effect of pre-treated inhibitor” value on mGlu1(N264H) mutant is on record as “suppressed”.

Take `OCCOCCOCc1ccnc(-c2cc(COCCOCCO)ccn2)c1.[Cl][Pd][Cl]` [Pd(EG-bpy)]: at mGlu1(N264H) mutant (3 μM Pd(bpy) derivative), the “Receptor activation (Ca2+ response, Δratio)” value is “weakened responses”. Also, the “Ca2+ response to Pd complex, individual cells #1-#20 (Fig.4e)” value on mGlu1(N264H) mutant (single-cell values) is -0.02498 and -0.009 and -0.01094 and -0.001385 and -0.02155 and -0.01075 and -0.019 and 0.05131 and 0.02474 and 0.01748 and 0.01646 and -0.03188 and 0.7968 and -0.03567 and 0.2621.

On to `[Zn+2]` [Zn^2+, reference compound], for which the “Receptor activation ([Ca2+]i change, Δratio)” value at mGlu1 E60H/N264H mutant, at mGlu1 P57H/N264H mutant, at mGlu1 A59H/N264H mutant, at mGlu1 P58H/N264H mutant (10 μM metal ion or metal complex) and at mGlu1 K61H/N264H mutant was “failed to activate” throughout.

On to `N[C@H](C(=O)O)c1cc(O)cc(O)c1` [DHPG, (S)-3,5-dihydroxyphenylglycine], for which the “firing rate, DHPG (50uM), AVE(Hz)” value is 10.6722 Hz in [1] (Suppl Fig14d, AAV-hSyn-mGlu1WT, mean) and 11.5511 Hz in assay [4] (Suppl Fig14d, AAV-hSyn-mGlu1CBC, mean). Also, the results for the “DHPG/CTL, AVE” value in assay [1] (setting [5]) and in [4] (setting [6]) were 1.47 and 1.507, respectively. The results for the “sAP events, DHPG (50uM), AVE” value in assay [1] (setting [5]) and in assay [4] (setting [6]) were 320.167 and 346.533, respectively. For the same compound, the “Number of spontaneous action potentials (sAP)” value in assay [1] (bath application of 50 µM DHPG) and in assay [4] (bath application of 50 µM DHPG) was “clearly increased” in each case. In addition, the “chemLTD: normalized PF-EPSC amplitude” value in assay [2] was determined as 56 ± 6%; in assay [3], 55 ± 7%.

The values above are taken from publication PMC9203742 (Nature Communications, 2022).
